Consider 2 compounds from US11096923B2, “Pharmaceutical composition containing polymyxin B/trimethoprim based therapeutics” (University of Rochester, priority 2016, dated 2021).

For test [1], the system named is planktonic P. aeruginosa cells. Briefly: Antimicrobial kill curves. Type of test: cell-based, Pseudomonas aeruginosa. The note with it: 2× MIC; for reduction in CFU at hour 4: 4 hours post-treatment. The protocol: (§1) Overnight cultures of the indicated organism were used to inoculate (1:100 dilution) 100 ml of fresh media and grown to mid-exponential phase. […] Aliquots were taken at 1, 2, 3, 4, and 24 hours, serial diluted and plated for colony forming units.

A further test relates to S. aureus strain UAMS-1. It is filed as cell-based, Staphylococcus aureus. The settings on record: 1×MIC, laser microbial growth monitor over 40 hours. The method, then: Spontaneous resistance to the indicated test agent(s) was measured for P. aeruginosa strain PA01 and S. aureus strain UAMS-1 using two liquid culture approaches. […] Growth was measured using the BacterioScan s216Dx laser microbial growth monitor, with optical measurements taken every 3 minutes over 40 hours. Following 40 hours, samples were plated for to measure viable colony forming units and re-tested for drug susceptibility.
To determine if these colonies represented untreated cells vs. resistant cells, 8 individual colonies from each treatment condition were randomly selected and tested for MICs.
Using an automated laser microbial growth monitor, the optical profiles of these cultures were measured continuously over time. […] Again 8 colonies were selected at random from each treatment group.

In test [2] the test system is P. aeruginosa. Briefly: Fractional inhibitory concentration, checkerboard MIC. It is filed as cell-based, Pseudomonas aeruginosa. The settings on record: for MIC: Pseudomonas aeruginosa.
Test [3] concerns P. aeruginosa. As to the kind of experiment: MIC of clinical P. aeruginosa ocular isolates (antibiotic susceptibility profiles). It is filed as cell-based, Pseudomonas aeruginosa. The note with it: Pseudomonas aeruginosa, read-out: Minimum Inhibitory Concentration. From the text: A series of genotyping and biological assays were used as a preliminary means to evaluate the clonality of clinical P. aeruginosa isolates collected, as follows. Genomic DNA was purified from each isolate using Qiagen DNeasy kits (Hilden, Germany) and used as a template for polymerase chain reactions to detect the presence of the virulence factors exoS, exoY, exoU, exoT, and perV using previously published primers (Table 1). See Allewelt M, Coleman F T, Grout M, Priebe G P, Pier G B. Acquisition of expression of the Pseudomonas aeruginosa ExoU cytotoxin leads to increased bacterial virulence in a murine model of acute pneumonia and systemic spread. Infection and immunity 2000; 68:3998-4004, Lomholt J A, Poulsen K, Kilian M. Epidemic population structure of Pseudomonas aeruginosa: evidence for a clone that is pathogenic to the eye and that has a distinct combination of virulence factors. Infection and immunity 2001; 69, and Ledbetter E C, Mun J J, Kowbel D, Fleiszig S M. Pathogenic phenotype and genotype of Pseudomonas aeruginosa isolates from spontaneous canine ocular infections. Investigative ophthalmology & visual science 2009; 50. […] See Institute C. Performance Standards for Antimicrobial Susceptibility Testing: Twenty-fifth Informational Supplement. Each isolate's ability to form biofilms was quantified. To do so, wells of a polystyrene plate containing 72-hour established biofilms were washed with 0.8% NaCl to remove non adherent cells and stained with crystal violet. To quantify biofilm staining, plates were washed 3 times with H2O, stain was suspended in 30% glacial acetic acid and the optical density (OD600nm) of each well was determined using an automated plate reader, as previously described. See Jacobs A C, Blanchard C E, Catherman S C, Dunman P M, Murata Y. An ribonuclease T2 family protein modulates Acinetobacter baumannii abiotic surface colonization. PloS one 2014; 9.

The subject of another test is P. aeruginosa biofilm. More on the design: key: Killing (+) of established biofilms. The settings on record: established biofilms; adenylate kinase reporter; Blanchard et al., 2016; cited from earlier work.
Test [4] has as its system planktonic S. aureus cells. Briefly: Antimicrobial kill curves. It is filed as cell-based, Staphylococcus aureus. The settings on record: 2× MIC. The method, then:
as §1

Values joined by “and” are separate entries in the source; they are usually repeats but may differ in a detail not shown here. Identical values can stand only once.

As to `CO[C@H]1/C=C/O[C@@]2(C)Oc3c(C)c(O)c4c(O)c(c(/C=N/N5CCN(C)CC5)c(O)c4c3C2=O)NC(=O)/C(C)=C\C=C\[C@H](C)[C@H](O)[C@@H](C)[C@@H](O)[C@@H](C)[C@H](OC(C)=O)[C@@H]1C` [Rifampicin, rifampicin], the “reduction in CFU at hour 4” value in test [1] came out at 6 log. Also, the “start of outgrowth of treated culture” value with S. aureus strain UAMS-1 stood at 8 h. Besides, the MIC in combination with P. aeruginosa [2] (P. aeruginosa PAO1, PT combined with rifampicin) came out at 1.9 µg/mL; in the test with P. aeruginosa [2] (P. aeruginosa RW01, PT combined with rifampicin), 1.9 µg/mL; in the test with P. aeruginosa [2] (P. aeruginosa RW02, PT combined with rifampicin), 1.9 µg/mL; with P. aeruginosa [2] (P. aeruginosa RW03, PT combined with rifampicin), 3.9 µg/mL; with P. aeruginosa [2] (P. aeruginosa RW04, PT combined with rifampicin), 1.9 µg/mL; in the test on P. aeruginosa [2] (P. aeruginosa RW05, PT combined with rifampicin), 1.9 µg/mL. Also, the MIC in combination in the test on P. aeruginosa [2] (P. aeruginosa RW06, PT combined with rifampicin) worked out at 1.9 µg/mL; in the test on P. aeruginosa [2] (P. aeruginosa RW07, PT combined with rifampicin), 1.9 µg/mL. In addition, the MIC in the test with P. aeruginosa [2] (P. aeruginosa RW01) was found to be 15.6 µg/mL; in the test on P. aeruginosa [2] (P. aeruginosa RW02), 15.6 µg/mL; with P. aeruginosa [2] (P. aeruginosa RW03) it was 15.6 µg/mL; in the test with P. aeruginosa [2] (P. aeruginosa RW04) it was 15.6 µg/mL; in the test on P. aeruginosa [2] (P. aeruginosa RW05), 31.2 µg/mL; in the test on P. aeruginosa [2] (P. aeruginosa RW06), 15.6 µg/mL. Moreover, the MIC came to 15.6 µg/mL with P. aeruginosa [2] (P. aeruginosa RW07) and 15.6 µg/mL with P. aeruginosa [2] (PAO1, P. aeruginosa PAO1).
For `NC[C@H]1O[C@H](O[C@H]2[C@H](O)[C@@H](O[C@H]3O[C@H](CO)[C@@H](O)[C@H](N)[C@H]3O)[C@H](N)C[C@@H]2N)[C@H](N)C[C@@H]1O` [Tobramycin, tobramycin], the “reduction in CFU at hour 4” value in test [1] was determined as 2 log. Further, the “reduction in CFU at 24 hr” value in test [1] (24 hours) is 7 log. Further, the MIC in the test on P. aeruginosa [3] (P. aeruginosa ocular isolate RW01 (cornea)) was 0.24 µg/mL; in the test with P. aeruginosa [3] (P. aeruginosa ocular isolate RW02 (cornea)), 0.24 µg/mL; in the test with P. aeruginosa [3] (P. aeruginosa ocular isolate RW03 (cornea)), 0.24 µg/mL; in the test on P. aeruginosa [3] (P. aeruginosa ocular isolate RW04 (conjunctiva)) it was 0.48 µg/mL; in the test with P. aeruginosa [3] (P. aeruginosa ocular isolate RW05 (cornea)), 0.48 µg/mL; in the test with P. aeruginosa [3] (P. aeruginosa ocular isolate RW06 (cornea)) it was 0.24 µg/mL. The MIC was found to be 0.24 µg/mL in the test on P. aeruginosa [3] (P. aeruginosa ocular isolate RW07 (cornea)); 0.24 µg/mL with P. aeruginosa [2] (P. aeruginosa RW01); 0.24 µg/mL with P. aeruginosa [2] (P. aeruginosa RW02); 0.24 µg/mL in the test with P. aeruginosa [2] (P. aeruginosa RW03); 0.48 µg/mL in the test on P. aeruginosa [2] (P. aeruginosa RW04); 0.48 µg/mL in the test with P. aeruginosa [2] (P. aeruginosa RW05). Besides, the MIC with P. aeruginosa [2] (P. aeruginosa RW06) came out at 0.24 µg/mL; in the test on P. aeruginosa [2] (P. aeruginosa RW07), 0.24 µg/mL; in the test with P. aeruginosa [2] (PAO1, P. aeruginosa PAO1), 0.48 µg/mL. Also, in the test with P. aeruginosa biofilm, the “P. aeruginosa biofilm AK Signal” value was “+”. Further, the “reduction in CFU at 24 hours” value in test [4] stood at 6 log. The MIC in combination with P. aeruginosa [2] (P. aeruginosa PAO1, PT combined with tobramycin) was 0.12 µg/mL and 0.24 µg/mL; in the test on P. aeruginosa [2] (P. aeruginosa RW01, PT combined with tobramycin), 0.12 µg/mL; in the test with P. aeruginosa [2] (P. aeruginosa RW02, PT combined with tobramycin), 0.06 µg/mL; with P. aeruginosa [2] (P. aeruginosa RW03, PT combined with tobramycin), 0.12 µg/mL; in the test with P. aeruginosa [2] (P. aeruginosa RW04, PT combined with tobramycin), 0.12 µg/mL; in the test with P. aeruginosa [2] (P. aeruginosa RW05, PT combined with tobramycin) it was 0.24 µg/mL. For the same compound, the MIC in combination with P. aeruginosa [2] (P. aeruginosa RW06, PT combined with tobramycin) is 0.12 µg/mL; with P. aeruginosa [2] (P. aeruginosa RW07, PT combined with tobramycin) it was 0.12 µg/mL.
